US20220249599A1, “TREATMENT OF IMPLANTS WITH ENGINEERED ANTIMICROBIAL AMPHIPHILIC PEPTIDES” (priority 2018, published 2022)
Where two headings read alike, the source gives them in different places. Ends that are not written are not given here.

Legend:
[1] = system: Enterococcus faecium (n = 104); test: microbe, parasite or virus in culture; settings: n = 104
Experimental: Comparator antibiotics were supplied by Micromyx, and stock solutions were prepared on the first day of testing using solvents recommended by CLSI (1). Stock solutions of all compounds were made at 40× the final testing concentration and stored at −80° C. prior to testing. Information regarding compound source, catalog and lot number, testing concentrations and drug diluent for the comparators and test agent are detailed below in Table 3.
The test organisms evaluated in this study consisted of clinical isolates from the Micromyx Repository and reference isolates from the American Type Culture Collection (ATCC; Manassas, Va.). The clinical isolates were obtained from USA hospitals. Upon initial receipt at Micromyx, the organisms were sub-cultured onto an appropriate agar medium. Following incubation, colonies were harvested from these plates and cell suspensions prepared and frozen at −80° C. with a cryoprotectant. Prior to testing, the isolates were streaked from frozen vials onto Trypticase Soy Agar with 5% sheep blood (Becton Dickenson [BD]; Sparks, MD; Lot Nos. 7173618, 7166759, 7208688, 72144895, 7228505 and Remel Lenexa, Kans. Lot No. 212574). Plates were incubated at 35° C. overnight.
Mueller Hinton II broth (MHB II; BD; Lot Nos. 6258541 and 7143896) was used for MIC testing of aerobic organisms.
MIC values were determined using a broth microdilution procedure described by CLSI (1, 3). Automated liquid handlers (Multidrop 384, Labsystems, Helsinki, Finland; Biomek 2000 and Biomek FX, Beckman Coulter, Fullerton Calif.) were used to conduct serial dilutions and liquid transfers.
To prepare the drug mother plates, which would provide the serial drug dilutions for the replicate daughter plates, the wells of columns 2-12 of standard 96-well microdilution plates (Costar 3795) were filled with 150 µl of the designated diluent for each row of drug. The test articles and comparator compounds ([…] at 40× the highest concentration to be tested) were dispensed into the appropriate wells in column 1. The Biomek 2000 was then used to make 2-fold serial dilutions in the mother plates from column 1 through column 11. The wells of Column 12 contained no drug and served as the organism growth control wells for the assay.
The daughter plates were loaded with […] per well of MHB II using the Multidrop 384. The daughter plates were completed on the Biomek FX instrument which transferred 5 µL of drug solution from each well of a mother plate to the corresponding well of each daughter plate in a single step. A standardized inoculum of each test organism was prepared per CLSI methods (1). The inoculum for each organism was dispensed into sterile reservoirs divided by length (Beckman Coulter), and the Biomek 2000 was used to inoculate the plates. Daughter plates were placed on the Biomek 2000 work surface in reverse orientation so that inoculation took place from low to high drug concentration.
Plates were stacked 3-4 high, covered with a lid on the top plate, placed in plastic bags, and incubated at 35° C. for 16 to 20 hrs. Following incubation, the microplates were removed from the incubator and viewed from the bottom using a plate viewer. […] The MIC was read and recorded as the lowest concentration of drug that inhibited visible growth of the organism.
Clinical breakpoints to determine percent resistance within a given organism group were obtained from CLSI (3), with the exception of colistin for K. pneumoniae, Enterobacter spp., and E. coli, which are only available from EUCAST.

[2] = system: Pseudomonas aeruginosa (n = 109); format: cell-based; settings: P. aeruginosa colistin-resistant (COL^R) isolates, n 8
Experimental: (§1) The clinical isolates were obtained from USA hospitals. […] Plates were incubated at 35° C. overnight.

[3] = system: Acinetobacter spp. (n = 104); format: cell-based
Experimental: as §1

[4] = system: Escherichia coli (n = 101); format: cell-based; settings: n = 101
Experimental: as §1

[5] = system: Klebsiella pneumoniae (n = 101); format: cell-based
Experimental: as §1

[6] = system: Acinetobacter baumannii ATCC BAA-1797 (MDR); test: microbe, parasite or virus in culture; format: cell-based; settings: ATCC BAA-1797
Summary of the method: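 Peptides, formulated in PBS (two in DMSO with 0.002% polysorbate-80, giving 2.5% DMSO at the top dilution), are 2-fold serially diluted from 32 mcg/mL final into MHB II with 0.002% P80. A CLSI-standardized inoculum is added, plates incubate 16–20 hrs at 35° C., and visible growth is scored.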

[7] = mouse
From the text: Male CD-1 mice will be received from an approved vendor and allowed to acclimate for a minimum of two days. Fasting will be not required.
All dosing syringes will be weighed prior to and following dosing. IV doses will be administered as a slow bolus (over ˜30 seconds) via direct venipuncture of a tail vein. All animals will be observed at dosing and each scheduled collection. All abnormalities will be recorded.
Terminal blood samples will be collected via cardiac puncture following inhalation anesthesia.
Sample Processing and Storage: Blood samples will be collected into K2EDTA tubes and stored on wet ice. Whole blood will be processed to plasma by centrifugation (3500 rpm at 5° C.) within 30 minutes of collection. Plasma samples will be split into 2 equal aliquots and each transferred into 96 well plates (matrix tubes) and stored at −80° C. until analysis. Administered doses will be determined gravimetrically.
Prior to extraction, a known concentration of a mass-adjusted internal standard (IS) will be added to assess recovery and allow for quantitation. Purified samples will be further subjected to high-performance liquid chromatography (HPLC) using C18 300 or 130 angstrom columns prior to MS/MS analysis. Multiple charge states will be observed by MS, so MS/MS will be employed to enable multiple reaction monitoring (MRM) analyses to determine the most MRM transitions with the highest signal-to-noise gain. Compound plasma concentrations will be determined by comparing to and compensating with co-purified IS peak intensity and validated calibrated standard curves.
Pharmacokinetic parameters will be calculated using non-compartmental methods as implemented in the Phoenix® WinNonlin® ver. 6.3 comprehensive TK/PK analysis software program (Pharsight Corporation; Mountain View, Calif.) using an IV infusion model. Pharmacokinetic analysis will be conducted using a 30-minute intravenous infusion time. Therefore, 30 minutes will be added to each sample time point postdose to obtain nominal time for TK analysis. Nominal times and dosage levels will be used for all calculations. Values below the lower limit of quantitation (BLQ) will be assigned a value of zero for the pharmacokinetic calculations. Microsoft® Excel® 2013 will be used for receipt of bioanalytical data, minor formatting, including setting BLQ values to “0”, transfer into WinNonlin® for PK analysis, and calculation of the mean when an approximated value will be excluded. All plasma concentration data from all animals will be included in the analysis. Graphical presentations will be performed using Microsoft® Excel® 2013.

What does the source list for “RRWVRRVRRVWRRVVRVVRRWVRR-NH2 (C-terminus assumed) [SEQ ID NO: 1]”?
MIC50 [1]: 0.5 µg/mL; MIC90 [1]: 1 µg/mL; MIC range [1]: 0.25 to 2 µg/mL; Mode (MIC) [1]: 1 µg/mL; MIC90 [2]: 16 µg/mL; MIC90 [3]: 4 µg/mL; Mode (MIC) [3]: 4 µg/mL; MIC90 ([3]; Acinetobacter colistin-resistant (COL^R) isolates, n 21): 16 µg/mL; MIC90 [4]: 4 µg/mL; Mode (MIC) [4]: 2 µg/mL; MIC90 ([5]; K. pneumoniae colistin-resistant (COL^R) isolates, n 28): 16 µg/mL; Mode (MIC) ([5]; n = 101): 8 µg/mL; MIC [6]: 4 µg/mL; AUCIinf_D ([7]; IV Dose 3 mg/kg): <3500 kg·ng·h/mL/ng; AUCinf ([7]; IV Dose 3 mg/kg): <3500 ng·h/mL; Extrapolated ([7]; IV Dose 3 mg/kg): ~0.5%; MRTlast ([7]; IV Dose 3 mg/kg): ~0.5 h; T1/2 ([7]; IV Dose 3 mg/kg): ~8 h; AUCIinf_D ([7]; IV Dose 15 mg/kg): 3589 kg·ng·h/mL/ng; Extrapolated ([7]; IV Dose 15 mg/kg): 0.49%
